SMILES strings stand for the structures. Where only a bound is given, the exact number is not on record here.

A short description of data set [1]: Percentage recovery after 3h incubation with rat hapatocytes was determined. The class given is ADME, organism-based. Conditions: hepatocytes, read-out: Recovery.
Data set [2] addresses T1, Prostaglandin G/H synthase 2 (Homo sapiens, UniProt P35354).
T1 sequence (P35354 whole entry): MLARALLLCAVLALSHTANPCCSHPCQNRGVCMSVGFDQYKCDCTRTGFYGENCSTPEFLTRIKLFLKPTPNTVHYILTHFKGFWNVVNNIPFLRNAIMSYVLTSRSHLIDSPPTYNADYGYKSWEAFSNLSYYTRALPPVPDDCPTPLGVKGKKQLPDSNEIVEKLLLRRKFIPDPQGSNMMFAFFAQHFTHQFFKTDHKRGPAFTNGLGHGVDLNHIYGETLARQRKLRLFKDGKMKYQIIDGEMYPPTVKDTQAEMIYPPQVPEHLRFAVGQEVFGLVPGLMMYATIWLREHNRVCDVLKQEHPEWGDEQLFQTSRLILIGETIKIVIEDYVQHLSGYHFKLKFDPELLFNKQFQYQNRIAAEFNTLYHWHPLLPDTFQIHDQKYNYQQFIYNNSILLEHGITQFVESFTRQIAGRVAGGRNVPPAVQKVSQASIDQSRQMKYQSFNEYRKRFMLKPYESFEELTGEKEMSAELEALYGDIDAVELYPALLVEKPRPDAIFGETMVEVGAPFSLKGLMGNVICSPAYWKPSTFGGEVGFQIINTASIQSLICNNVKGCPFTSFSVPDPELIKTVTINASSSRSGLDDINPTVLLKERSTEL
The class given is cell-based, CHO.
Description: Tested in vitro for the ability to inhibit Prostaglandin G/H synthase 2 in chinese hamster ovary (CHO) cells

The target of data set [3] is Prostaglandin G/H synthase 1 (Homo sapiens, UniProt P23219).
Description: Tested in vitro for the ability to inhibit Prostaglandin G/H synthase 1 in chinese hamster ovary (CHO) cells
The target of data set [4] is T1, Prostaglandin G/H synthase 2. The class given is organism-based, Blood.
Description: In vivo ability to inhibit Prostaglandin G/H synthase 2 in human whole blood assay
For data set [5], the species on record is Rattus norvegicus. As to the kind of experiment: Plasma clearance in rat. Conditions: in vivo. The class given is ADME, organism-based.
A short description of data set [6]: Bioavailability at 4 hr after administration of 5 mg/kg dose peroral in rat. Conditions: in vivo, po. The class given is ADME, organism-based.
Data set [7] can be described thus: Maximum concentration at 4 hr after administration of 5 mg/kg dose peroral in rat. Conditions: in vivo, po. The class given is ADME, organism-based. The arrangement: dose 5 mg/kg, route oral.
The species entered for data set [8] is Rattus norvegicus. Put plainly: Intrinsic activity in the rat pyresis assay. Format: functional.
The species entered for data set [9] is Rattus norvegicus. Put plainly: Intrinsic activity in the rat hyperalgesia assay. Conditions: read-out: ID50 (the source's name). The class given is functional.
For data set [10], the system named is Rattus norvegicus. As to the kind of experiment: Intrinsic activity in the rat paw edema model. The class given is functional.

Prostaglandin G/H synthase 1, sequence (P23219 whole entry): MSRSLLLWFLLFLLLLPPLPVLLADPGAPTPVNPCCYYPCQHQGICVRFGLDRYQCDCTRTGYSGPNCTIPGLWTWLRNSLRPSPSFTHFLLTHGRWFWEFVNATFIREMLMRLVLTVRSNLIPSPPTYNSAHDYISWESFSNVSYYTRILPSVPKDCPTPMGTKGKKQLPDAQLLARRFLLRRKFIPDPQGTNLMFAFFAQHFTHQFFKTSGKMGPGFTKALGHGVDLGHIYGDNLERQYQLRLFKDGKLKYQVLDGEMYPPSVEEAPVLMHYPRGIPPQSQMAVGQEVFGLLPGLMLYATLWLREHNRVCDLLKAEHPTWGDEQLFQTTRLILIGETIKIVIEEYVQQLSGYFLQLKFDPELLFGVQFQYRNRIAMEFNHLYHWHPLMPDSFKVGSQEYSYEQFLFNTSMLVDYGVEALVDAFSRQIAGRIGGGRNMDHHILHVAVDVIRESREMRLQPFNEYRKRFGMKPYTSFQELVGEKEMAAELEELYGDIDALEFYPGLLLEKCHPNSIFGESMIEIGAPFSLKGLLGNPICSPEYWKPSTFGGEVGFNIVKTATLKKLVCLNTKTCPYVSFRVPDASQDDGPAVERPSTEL

As to `CS(=O)(=O)c1ccc(-c2c(-c3ccccc3)nc3sccn23)cc1`, the remaining at 3 h in data set [1] is below 10%.
With `CS(=O)(=O)c1ccc(-c2sc3nc(C(F)(F)F)nn3c2-c2cccc(F)c2)cc1`, the IC50 in data set [2] was found to be 13 nM; in [3], 8500 nM.
Regarding `CS(=O)(=O)c1ccc(-c2sc3ncnn3c2-c2cc(F)cc(F)c2)cc1`, the IC50 in [2] is 80 nM; in data set [3] it was above 50000 nM.
Take `CCc1nc2sc(-c3ccc(S(C)(=O)=O)cc3)c(-c3ccccc3)n2n1`: the figures for the half-maximal inhibitory concentration (IC50) in data set [2] and in data set [3] were 15 nM and 2400 nM, respectively.
In turn, `CS(=O)(=O)c1ccc(-c2sc3nc(C(F)(F)F)nn3c2-c2ccccc2)cc1` yielded an IC50 in data set [3] of 1100 nM.
For the molecule `CS(=O)(=O)c1ccc(-c2sc3ncnn3c2-c2ccc(F)cc2)cc1`, the IC50 in data set [2] stood at 36 nM; in data set [3], 15000 nM.
With `CS(=O)(=O)c1ccc(-c2c(-c3ccccc3)sc3nc(C(F)(F)F)nn23)cc1`, the IC50 in data set [2] is above 50000 nM; in [3] it was 9000 nM.
In the same order, the values of `CS(=O)(=O)c1ccc(-c2c(-c3ccccc3)sc3nncn23)cc1` are 230 nM and 2100 nM.
In the case of `C=Cc1nc2sc(-c3ccc(S(C)(=O)=O)cc3)c(-c3ccccc3)n2n1`, the figures for the IC50 in data set [4], in [2] and in data set [3] were 4100 nM, 6 nM and 9600 nM, respectively.
As to `CS(=O)(=O)c1ccc(-c2sc3ncnn3c2-c2cccc(F)c2)cc1`, the IC50 in data set [4] is 4200 nM; in data set [2], 22 nM; in data set [3] it was above 50000 nM.
In turn, `CS(=O)(=O)c1ccc(-c2sc3ncnn3c2-c2ccccc2)cc1` had a Clearance in data set [5] of 13 mL/min/kg. Besides, the bioavailability in data set [6] was around 100%. Also, the Cmax in [7] is 7.2 µM. Further, the remaining at 3 h in data set [1] was above 95%. Moreover, the half-maximal inhibitory concentration (IC50) is 2300 nM in [4], 10 nM in [2] and 43000 nM in [3]. Further, the results for the ED50 in [8], in data set [9] and in data set [10] were 1 mg/kg, 1 mg/kg and 1.7 mg/kg, respectively.
`CS(=O)(=O)c1ccc(-c2c(-c3ccccc3)sc3ncnn23)cc1`: the IC50 was above 30000 nM in [4], 32 nM in [2] and above 50000 nM in data set [3].
Regarding `CS(=O)(=O)c1ccc(-c2sc3nncn3c2-c2ccccc2)cc1`, the results for the IC50 in data set [2] and in data set [3] were 450 nM and above 50000 nM, respectively.
For the molecule `COc1cccc(-c2c(-c3ccc(S(C)(=O)=O)cc3)sc3ncnn23)c1`, the results for the IC50 in data set [2] and in [3] were 260 nM and above 50000 nM, respectively.
For `Cc1nc2sc(-c3ccc(S(C)(=O)=O)cc3)c(-c3ccccc3)n2n1`, the IC50 was 10000 nM in data set [4], 20 nM in [2] and above 50000 nM in data set [3].
The matching figures for `Cc1nc2sc(-c3ccc(S(C)(=O)=O)cc3)c(-c3cccc(F)c3)n2n1`: 14000 nM, 150 nM and above 50000 nM.
For the molecule `CC(C)c1nc2sc(-c3ccc(S(C)(=O)=O)cc3)c(-c3ccccc3)n2n1`, the values for the IC50 in data set [2] and in data set [3] were 11 nM and 600 nM, respectively.
Consider `CS(=O)(=O)c1ccc(-c2sc3ncnn3c2-c2ccc(F)c(F)c2)cc1`, for which the IC50 was above 30000 nM in [4], 48 nM in data set [2] and 30000 nM in data set [3].
On to `Cc1cccc(-c2c(-c3ccc(S(C)(=O)=O)cc3)sc3nc(C(F)(F)F)nn23)c1`, for which the IC50 in [2] was 3 nM; in data set [3], 610 nM.

The IC50 is the concentration needed to halve the response being measured. Low readings indicate greater potency in that assay, high ones weaker potency in that assay. Usually bioavailability stands for dose-corrected exposure relative to a reference, in per cent. The low end stands for poor availability, the high end for good availability. For orientation: Cmax means the peak of the concentration-time curve.

(Values after ChEMBL document CHEMBL1129864, “A new series of selective COX-2 inhibitors: 5,6-diarylthiazolo[3,2-b][1,2,4]triazoles” (Bioorg Med Chem Lett, 1997).)
